Data set [1] has as its system T-lymphocytes and natural killer cells. The following applies: humans, 200 μg of selenium a day for eight weeks; cited from earlier work.
The subject of data set [2] is humans. The following applies: cited from earlier work.
The conditions of data set [3]: in vivo; cited from earlier work.
Data set [4] relates to rats. As to conditions: intravenous administration; cited from earlier work.
The conditions of data set [5]: oral administration of 1 mg of sodium selenite; cited from earlier work.
Data set [6] has as its system mice. The following applies: cited from earlier work.
Data set [7] concerns rabbits. The following applies: cited from earlier work.
Data set [8] relates to guinea pigs. The following applies: peroral administration; cited from earlier work.
The test system of data set [9] is various experimental animals. As to conditions: cited from earlier work.

Molecules are shown by their SMILES. Where two headings read alike, the source gives them in different places. Where only a bound is given, the exact number is not on record here.

As for `[Se]` [Selenium], in data set [1], the “Formation of the interleukin-2 receptor, lymphocyte proliferation, cell-destroying effect of T-lymphocytes and natural killer cells” value is recorded as “increases”. The “Recommended maximum single oral dose” value in [2] (in vivo, po) is given as “at most 50 μg of selenium/kg BW”. Further, in data set [2] (in vivo), the “Dosage seen as harmless” value is on record as “up to 500 μg of selenium a day”, the “Maximum safe ingestion over a longer time frame (WHO 1996)” value is 400 μg of selenium a day, the “Recommended maximum dose for long-term use” value was “at most 5 μg of selenium/kg BW” and the “Selenium content of whole blood from which symptoms can appear” value is recorded as ≥ 1000 μg/l of whole blood. In addition, the “Selenium ingestion in areas with chronic selenium poisonings” value in [2] (in vivo) is on record as 3-7 mg of selenium a day. For the same molecule, in data set [3], the “Portion of selenium taken in with food that leaves the organism renally” value is 50-70%. Besides, the “Selenium substitution required (long-term, continuous)” value (concluded from the results) was determined as 1000 µg/day. The Tendency towards infection entry (higher versus reduced selenium level) is “reduced tendency towards infection”. Besides, where the note is “human, in vivo”, the “Selenium level in the serum” value is reported as “rose up into the reference range” and the “Selenium whole blood levels” value was “rose only to just below the reference range”.

Turning to `O=[Se](O)O` [sodium selenite], the LD50 in data set [4] is 5.7 mg/kg BW; in data set [6] (intravenous administration), 2.2 mg of selenium/kg BW; in data set [6] (peroral administration) it was 3.2-3.5 mg/kg BW; in [7] (intravenous administration), 0.9 mg/kg BW; in data set [7] (peroral administration) it was 2.25 mg/kg BW; in [8], 2.3 mg/kg BW. The “Indications of selenium poisoning” value in [2] (four persons, 2 mg selenium a day for 20-40 days) was “did not result in any indications of selenium poisoning”. The Chronic toxicity in [2] (in vivo) was 3-7 mg of selenium/day. Further, the “Whole blood concentration at which first symptoms of poisoning manifest” value in [2] (in vivo) was 1.05 mg of selenium/l whole blood. For the same molecule, the “Dosage seen as harmless” value in data set [2] (long-term use (longer than three months)) is reported as “up to 550 μg of selenium a day”. In data set [2] (peroral 50 μg selenium per kg bodyweight over one year, patients with neuronal ceroid lipofuscinosis), the “Symptoms of selenium poisoning” value was “no symptoms of selenium poisoning were observed”. Further, the “Symptoms of chronic poisoning” value in data set [2] (person, 2 mg sodium selenite (900 μg selenium) daily for more than two years) is “fingernails were thickened and brittle”. In data set [2] (person, approx. 27 mg selenium a day for approx. two months), the Symptoms of poisoning result is “suffered from lassitude, nausea, vomiting, depression, bad breath, hair loss and nails that fell off”. In addition, the “Absorption, average portion” value in [5] was 62±14%. In [9], the Acute toxicity is listed as 1-5 mg of selenium per kg BW.

The values are drawn from US9277761B2, “Nutrition trace element composition” (priority 2003, dated 2016).
